Measured values taken from article PMC9286713 (CPT: Pharmacometrics & Systems Pharmacology, 2022).
Converted amounts (≈) assume the structure as drawn. Read-outs that look alike come from different tables or passages of the source. Values belong to the compound of their own block, whether it stands above or below them.

Assays:
[1] = human ADME study (unpublished data); cited from earlier work
logP determination = assay type: physicochemical
pKa determination = assay type: physicochemical
[2] = Solubility‐pH profile in buffers at 37°C; assay type: physicochemical
Blood/plasma ratio = assay type: in vitro ADME; details: blood and plasma
MATE1 = biological target: T1, MATE1 (Homo sapiens, UniProt Q96FL8); assay: MATE1 inhibition; assay type: in vitro ADME
T1 sequence (Q96FL8 1-570): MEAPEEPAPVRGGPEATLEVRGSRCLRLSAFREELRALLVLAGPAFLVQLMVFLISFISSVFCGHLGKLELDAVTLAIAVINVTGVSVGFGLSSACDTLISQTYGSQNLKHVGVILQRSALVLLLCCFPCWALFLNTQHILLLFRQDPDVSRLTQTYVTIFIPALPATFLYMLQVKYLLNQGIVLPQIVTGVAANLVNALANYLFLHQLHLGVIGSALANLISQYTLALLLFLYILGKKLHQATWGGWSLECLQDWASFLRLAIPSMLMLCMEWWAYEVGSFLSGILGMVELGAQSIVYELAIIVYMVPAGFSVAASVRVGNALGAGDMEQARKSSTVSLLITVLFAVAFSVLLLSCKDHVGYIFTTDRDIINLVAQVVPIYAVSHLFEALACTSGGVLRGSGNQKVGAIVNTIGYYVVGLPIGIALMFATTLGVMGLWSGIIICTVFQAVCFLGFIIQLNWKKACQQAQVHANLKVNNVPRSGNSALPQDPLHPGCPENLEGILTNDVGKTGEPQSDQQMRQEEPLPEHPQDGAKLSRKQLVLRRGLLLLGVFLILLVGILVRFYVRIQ

P‐glycoprotein (P‐gp) = P‐glycoprotein (P‐gp) (Homo sapiens, UniProt P08183); assay: In vitro transport study, pemigatinib as substrate: P‐gp mediated efflux; assay type: in vitro ADME; details: data on file
P‐glycoprotein (P‐gp), sequence (P08183 whole entry): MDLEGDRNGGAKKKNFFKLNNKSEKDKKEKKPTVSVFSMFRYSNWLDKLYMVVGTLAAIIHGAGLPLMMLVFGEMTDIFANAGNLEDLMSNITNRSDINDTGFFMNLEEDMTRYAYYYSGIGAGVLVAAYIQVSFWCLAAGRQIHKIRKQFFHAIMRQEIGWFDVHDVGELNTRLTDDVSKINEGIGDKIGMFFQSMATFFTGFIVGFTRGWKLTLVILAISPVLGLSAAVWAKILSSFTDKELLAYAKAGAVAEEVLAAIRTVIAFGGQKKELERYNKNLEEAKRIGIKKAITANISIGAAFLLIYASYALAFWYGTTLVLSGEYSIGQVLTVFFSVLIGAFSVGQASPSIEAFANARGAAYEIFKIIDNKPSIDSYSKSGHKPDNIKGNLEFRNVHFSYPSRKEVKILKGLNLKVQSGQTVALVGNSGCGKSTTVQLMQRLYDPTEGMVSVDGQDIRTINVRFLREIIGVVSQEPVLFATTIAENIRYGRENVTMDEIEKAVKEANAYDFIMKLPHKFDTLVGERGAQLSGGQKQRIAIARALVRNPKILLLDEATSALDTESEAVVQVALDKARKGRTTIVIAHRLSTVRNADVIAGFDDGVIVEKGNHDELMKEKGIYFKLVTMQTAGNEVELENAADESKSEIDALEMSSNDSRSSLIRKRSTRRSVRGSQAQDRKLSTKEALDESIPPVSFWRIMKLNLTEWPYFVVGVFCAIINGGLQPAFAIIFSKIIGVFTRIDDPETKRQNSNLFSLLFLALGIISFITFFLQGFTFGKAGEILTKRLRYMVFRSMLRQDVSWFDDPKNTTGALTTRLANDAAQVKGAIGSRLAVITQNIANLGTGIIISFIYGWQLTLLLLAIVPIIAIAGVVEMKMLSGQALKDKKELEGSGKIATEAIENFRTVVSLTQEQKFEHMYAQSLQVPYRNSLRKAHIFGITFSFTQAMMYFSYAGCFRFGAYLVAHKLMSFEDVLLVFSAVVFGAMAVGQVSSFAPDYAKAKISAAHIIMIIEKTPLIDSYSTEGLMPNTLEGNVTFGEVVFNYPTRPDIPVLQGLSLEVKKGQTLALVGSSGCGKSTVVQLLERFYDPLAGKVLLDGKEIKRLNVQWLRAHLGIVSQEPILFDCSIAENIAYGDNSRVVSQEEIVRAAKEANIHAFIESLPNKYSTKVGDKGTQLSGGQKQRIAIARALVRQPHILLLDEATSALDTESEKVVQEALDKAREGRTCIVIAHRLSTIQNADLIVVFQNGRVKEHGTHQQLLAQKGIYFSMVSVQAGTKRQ

[3] = Human mass balance / ADME study in healthy participants; assay type: in vivo
[4] = cited from earlier work; for Observed AUC0–∞: geometric mean
[5] = patients with cancer, cited from earlier work; for Observed AUCss,0–24: geometric mean
[6] = fed state; cited from earlier work
[7] = cited from earlier work
OCT2 = biological target: T2, OCT2 (Homo sapiens, UniProt O15244); assay: OCT2 inhibition
T2 sequence (O15244 1-555): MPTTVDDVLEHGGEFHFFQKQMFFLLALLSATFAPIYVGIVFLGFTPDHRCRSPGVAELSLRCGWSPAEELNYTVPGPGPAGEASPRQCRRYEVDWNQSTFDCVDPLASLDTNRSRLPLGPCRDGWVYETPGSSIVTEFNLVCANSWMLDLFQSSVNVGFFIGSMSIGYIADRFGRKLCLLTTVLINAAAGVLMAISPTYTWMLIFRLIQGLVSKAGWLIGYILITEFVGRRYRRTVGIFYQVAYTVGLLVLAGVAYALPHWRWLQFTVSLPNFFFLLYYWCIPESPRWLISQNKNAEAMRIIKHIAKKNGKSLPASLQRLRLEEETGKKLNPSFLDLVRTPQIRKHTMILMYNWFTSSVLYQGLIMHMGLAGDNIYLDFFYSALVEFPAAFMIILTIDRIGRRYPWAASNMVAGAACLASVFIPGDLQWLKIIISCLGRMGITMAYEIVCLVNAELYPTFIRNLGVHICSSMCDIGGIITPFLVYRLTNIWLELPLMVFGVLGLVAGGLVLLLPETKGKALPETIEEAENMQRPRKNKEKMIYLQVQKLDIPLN

P‐gp = P‐gp (Homo sapiens, UniProt P08183); assay: P‐gp inhibition
P‐gp, sequence (P08183 whole entry): as the sequence (P08183 whole entry) above

[8] = healthy participants, unpublished data

Compound: CCN1C(=O)N(c2c(F)c(O)cc(OC)c2F)Cc2cnc3[nH]c(CN4CCOCC4)cc3c21 [M2, O‐desmethyl‐pemigatinib]
Metabolite burden in urine and feces derived from M2 and its secondary metabolites [1]: 76.9%

logP (logP determination): 2.2
Compound type (pKa determination): Diprotic base
pKa (pKa determination; first printed pKa of the diprotic base): 5.7
pKa (pKa determination; second printed pKa of the diprotic base): 3.1
solubility ([2]; buffer, 37 °C, pH 1.2, aqueous buffer, Solubility, pH 1.2 buffer): ~710 µg/mL (≈ 1460 µM)
solubility ([2]; buffer, 37 °C, pH 2, aqueous buffer, Solubility, pH 2.0 buffer): 650 µg/mL (≈ 1330 µM)
solubility ([2]; buffer, 37 °C, pH 6.5, aqueous buffer, Solubility, pH 6.5 buffer): < 1 µg/mL
solubility ([2]; buffer, 37 °C, pH 7.4, aqueous buffer, Solubility, pH 7.4 buffer): < 1 µg/mL
solubility ([2]; buffer, pH 3.3, Solubility, pH 3.3): 200 µg/mL (≈ 410 µM)
solubility ([2]; buffer, pH 4.3, Solubility, pH 4.3): 30 µg/mL (≈ 61.5 µM)
solubility ([2]; buffer, pH 5.3, Solubility, pH 5.3): 1 µg/mL (≈ 2.05 µM)
solubility ([2]; pH 1.2 buffer, 37°C): 710 µg/mL (≈ 1460 µM)
blood plasma ratio (Blood/plasma ratio): 0.96
IC50 (MATE1): 1100 nM
Concentration at which P‐gp mediated efflux was saturated (P‐glycoprotein (P‐gp)): 1000 nM
Total radioactivity excreted in feces [3, 8]: 82.4%
Total radioactivity excreted in urine [3, 8]: 12.6%
Radioactivity blood/plasma value ([3]; human ADME study): 0.80
CL renal ([3]; human, urine, oral): ~3.33 mL/min
Administered radioactive dose recovered as unchanged pemigatinib in feces ([3]; in vivo): 1.4%
Dose excreted in urine as unchanged pemigatinib (renal excretion) ([3]; in vivo): ~ 1%
IC50 (OCT2): 75 nM
IC50 (P‐gp): 4800 nM
Compound: CCN1C(=O)N(c2c(F)c(OC)cc(OC)c2F)Cc2cnc3[nH]c(CN4CCOCC4)cc3c21 [pemigatinib, Pemigatinib]
Increase in pemigatinib AUC ([4]; itraconazole coadministration): ~90%
Increase in pemigatinib Cmax ([4]; itraconazole coadministration): ~20%
CLpo (oral clearance) ([4]; pemigatinib alone cohort of itraconazole DDI study, healthy volunteers): 14.5 L/h
Decrease in half‐life of pemigatinib ([4]; rifampin coadministration): 63%
Decrease in pemigatinib AUC ([4]; rifampin coadministration): 85%
Observed AUC0–∞ ([4]; single oral dose 4.5 mg, healthy volunteers): 0.672 µM·h
Observed AUC0–∞ ([4]; single oral dose 13.5 mg, healthy volunteers): 1.96 µM·h
Observed AUCss,0–24 ([5]; multiple oral doses 6 mg): 1.05 µM·h
Observed AUCss,0–24 ([5]; multiple oral doses 9 mg): 1.67 µM·h
Terminal half‐life ([5]; oral dosing): ~ 15 h
CLpo (oral clearance) ([5]; phase I study): 12.0 L/h
Apparent volume of distribution, geometric mean [5]: 173 to 244 L
SS oral clearance, geometric mean [5]: 9.88 to 11.7 L/h
Decrease of geometric mean Cmax [6]: 18%
Increase of geometric mean AUC0–24 at SS [6]: 11%
Total radioactivity accounted for by known metabolites [1]: 72%
Decrease of geometric mean AUC of pemigatinib ([7]; coadministration with esomeprazole): 8%
Decrease of geometric mean Cmax of pemigatinib ([7]; coadministration with histamine‐2 antagonist ranitidine): 2%
Decrease of geometric mean Cmax of pemigatinib ([7]; coadministration with proton pump inhibitor esomeprazole): 35%
Increase of geometric mean AUC of pemigatinib ([7]; coadministration with ranitidine): 3%
